Active and inactive are the calls of the source.
Columns and labels:
[1] = target: Hepatocyte growth factor receptor (Homo sapiens, UniProt P08581)
[2] = target: Serine/threonine-protein kinase Nek7 (Homo sapiens, UniProt Q8TDX7)
[3] = target: T1, Eukaryotic translation initiation factor 5B (Homo sapiens, UniProt O60841)
T1 sequence (O60841 whole entry): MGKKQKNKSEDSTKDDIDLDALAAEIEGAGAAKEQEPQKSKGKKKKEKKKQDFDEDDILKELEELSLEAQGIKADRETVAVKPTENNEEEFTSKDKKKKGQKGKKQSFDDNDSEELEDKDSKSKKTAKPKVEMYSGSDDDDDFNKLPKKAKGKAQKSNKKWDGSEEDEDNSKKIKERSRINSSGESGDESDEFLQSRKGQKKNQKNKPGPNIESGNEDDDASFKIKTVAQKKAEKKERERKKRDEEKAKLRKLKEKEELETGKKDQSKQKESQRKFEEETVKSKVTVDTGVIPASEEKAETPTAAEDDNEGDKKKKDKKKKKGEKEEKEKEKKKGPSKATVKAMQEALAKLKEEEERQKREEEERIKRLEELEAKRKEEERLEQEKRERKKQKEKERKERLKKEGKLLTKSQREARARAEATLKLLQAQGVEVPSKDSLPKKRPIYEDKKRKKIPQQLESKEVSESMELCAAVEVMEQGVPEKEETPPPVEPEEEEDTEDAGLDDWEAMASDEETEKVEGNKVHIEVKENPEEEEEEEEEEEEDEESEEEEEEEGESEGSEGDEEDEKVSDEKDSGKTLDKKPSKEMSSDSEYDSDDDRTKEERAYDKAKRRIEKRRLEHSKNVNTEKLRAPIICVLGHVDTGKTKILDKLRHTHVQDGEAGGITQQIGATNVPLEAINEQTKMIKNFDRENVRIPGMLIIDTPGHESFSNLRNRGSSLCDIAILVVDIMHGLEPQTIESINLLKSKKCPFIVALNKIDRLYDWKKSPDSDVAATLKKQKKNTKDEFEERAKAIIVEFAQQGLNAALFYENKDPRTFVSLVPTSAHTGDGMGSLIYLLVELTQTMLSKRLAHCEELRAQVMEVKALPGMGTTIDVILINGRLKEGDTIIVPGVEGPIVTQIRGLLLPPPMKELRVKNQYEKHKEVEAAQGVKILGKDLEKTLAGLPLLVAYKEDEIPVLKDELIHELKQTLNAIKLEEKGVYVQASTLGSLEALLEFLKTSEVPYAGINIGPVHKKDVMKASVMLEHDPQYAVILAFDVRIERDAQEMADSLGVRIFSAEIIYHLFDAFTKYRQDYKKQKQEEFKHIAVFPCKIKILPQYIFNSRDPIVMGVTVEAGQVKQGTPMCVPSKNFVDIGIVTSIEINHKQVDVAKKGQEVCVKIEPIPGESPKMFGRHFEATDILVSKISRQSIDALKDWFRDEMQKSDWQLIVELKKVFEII

[4] = target: T2, Serine/threonine-protein kinase Nek2 (Homo sapiens, UniProt P51955)
T2 sequence (P51955 whole entry): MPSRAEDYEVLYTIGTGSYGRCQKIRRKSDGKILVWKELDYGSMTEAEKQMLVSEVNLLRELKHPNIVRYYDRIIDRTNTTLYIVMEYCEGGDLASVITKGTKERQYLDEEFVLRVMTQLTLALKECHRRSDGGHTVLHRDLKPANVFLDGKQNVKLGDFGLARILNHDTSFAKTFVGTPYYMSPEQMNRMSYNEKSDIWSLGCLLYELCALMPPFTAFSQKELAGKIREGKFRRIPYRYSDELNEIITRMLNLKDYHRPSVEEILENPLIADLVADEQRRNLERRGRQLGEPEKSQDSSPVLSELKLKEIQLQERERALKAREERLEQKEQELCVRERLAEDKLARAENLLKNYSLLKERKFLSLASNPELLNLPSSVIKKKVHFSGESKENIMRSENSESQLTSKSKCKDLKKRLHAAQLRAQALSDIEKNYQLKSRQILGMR

[5] = target: Serine/threonine-protein kinase ATR (Homo sapiens, UniProt Q13535)
Activated CDC42 kinase 1 = Activated CDC42 kinase 1 (Homo sapiens, UniProt Q07912)
[6] = target: Receptor-interacting serine/threonine-protein kinase 2 (Homo sapiens, UniProt O43353)
Ephrin type-A receptor 7 = Ephrin type-A receptor 7 (Homo sapiens, UniProt Q15375)
[7] = target: Dual specificity protein kinase CLK2 (Homo sapiens, UniProt P49760)
Aurora kinase A = target: T3, Aurora kinase A (Homo sapiens, UniProt O14965)
T3 sequence (O14965 whole entry): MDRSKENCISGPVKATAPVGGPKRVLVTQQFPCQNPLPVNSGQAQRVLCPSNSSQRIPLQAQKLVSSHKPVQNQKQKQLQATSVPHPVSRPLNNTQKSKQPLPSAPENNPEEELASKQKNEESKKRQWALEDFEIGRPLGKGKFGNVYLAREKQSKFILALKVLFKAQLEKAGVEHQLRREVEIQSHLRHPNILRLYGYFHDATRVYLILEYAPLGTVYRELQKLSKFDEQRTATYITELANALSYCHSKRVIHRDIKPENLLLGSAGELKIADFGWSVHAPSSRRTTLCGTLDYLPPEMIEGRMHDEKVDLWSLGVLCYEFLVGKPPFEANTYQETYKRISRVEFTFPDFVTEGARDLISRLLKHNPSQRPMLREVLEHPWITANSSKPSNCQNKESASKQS

dCTP pyrophosphatase 1 = target: T4, dCTP pyrophosphatase 1 (Homo sapiens, UniProt Q9H773)
T4 sequence (Q9H773 whole entry): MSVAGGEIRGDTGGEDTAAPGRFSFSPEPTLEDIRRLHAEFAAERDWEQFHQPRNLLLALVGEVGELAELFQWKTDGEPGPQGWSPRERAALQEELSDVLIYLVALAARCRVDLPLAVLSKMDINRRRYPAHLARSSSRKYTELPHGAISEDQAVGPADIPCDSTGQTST

[8] = target: Serine/threonine-protein kinase PAK 6 (Homo sapiens, UniProt Q9NQU5)
[9] = target: Dual specificity protein kinase CLK3 (Homo sapiens, UniProt P49761); type: subcellular, K-562, COLO 205, SK-N-BE(2) and MV-4-11, Cell lysate; details: read-out: Kd apparent
[10] = target: Cell division cycle 7-related protein kinase (Homo sapiens, UniProt O00311)
[11] = target: G protein-coupled receptor kinase 6 (Homo sapiens, UniProt P43250)
Further: in the data inactive means no Kd found up to 30 µM.

Ephrin type-A receptor 7, sequence (Q15375 whole entry): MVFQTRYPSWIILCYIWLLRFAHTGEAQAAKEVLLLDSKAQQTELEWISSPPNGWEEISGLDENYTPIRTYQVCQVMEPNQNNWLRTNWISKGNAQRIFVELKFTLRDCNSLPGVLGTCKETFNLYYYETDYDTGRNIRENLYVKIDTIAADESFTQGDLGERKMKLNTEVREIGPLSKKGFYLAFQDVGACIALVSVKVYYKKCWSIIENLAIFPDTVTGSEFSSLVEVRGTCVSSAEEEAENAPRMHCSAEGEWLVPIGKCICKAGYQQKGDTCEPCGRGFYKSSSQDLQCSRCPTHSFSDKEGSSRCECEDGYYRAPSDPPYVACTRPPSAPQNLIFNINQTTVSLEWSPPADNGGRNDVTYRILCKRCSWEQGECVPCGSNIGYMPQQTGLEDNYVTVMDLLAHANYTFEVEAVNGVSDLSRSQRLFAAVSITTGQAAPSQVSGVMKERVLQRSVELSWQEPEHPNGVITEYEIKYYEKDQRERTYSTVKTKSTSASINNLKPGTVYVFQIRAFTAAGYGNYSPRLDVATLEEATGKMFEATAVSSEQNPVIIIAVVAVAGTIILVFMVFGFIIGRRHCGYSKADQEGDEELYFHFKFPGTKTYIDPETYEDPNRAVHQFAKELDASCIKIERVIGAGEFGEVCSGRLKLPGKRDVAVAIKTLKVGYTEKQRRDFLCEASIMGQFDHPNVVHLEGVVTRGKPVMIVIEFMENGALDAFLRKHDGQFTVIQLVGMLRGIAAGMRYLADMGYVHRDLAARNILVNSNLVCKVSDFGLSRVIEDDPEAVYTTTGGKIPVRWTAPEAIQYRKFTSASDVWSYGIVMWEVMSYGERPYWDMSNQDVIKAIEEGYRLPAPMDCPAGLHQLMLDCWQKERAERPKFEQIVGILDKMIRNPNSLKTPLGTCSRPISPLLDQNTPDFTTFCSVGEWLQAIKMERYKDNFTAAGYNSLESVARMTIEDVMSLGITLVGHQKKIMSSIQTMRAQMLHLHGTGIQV
Serine/threonine-protein kinase PAK 6, sequence (Q9NQU5 whole entry): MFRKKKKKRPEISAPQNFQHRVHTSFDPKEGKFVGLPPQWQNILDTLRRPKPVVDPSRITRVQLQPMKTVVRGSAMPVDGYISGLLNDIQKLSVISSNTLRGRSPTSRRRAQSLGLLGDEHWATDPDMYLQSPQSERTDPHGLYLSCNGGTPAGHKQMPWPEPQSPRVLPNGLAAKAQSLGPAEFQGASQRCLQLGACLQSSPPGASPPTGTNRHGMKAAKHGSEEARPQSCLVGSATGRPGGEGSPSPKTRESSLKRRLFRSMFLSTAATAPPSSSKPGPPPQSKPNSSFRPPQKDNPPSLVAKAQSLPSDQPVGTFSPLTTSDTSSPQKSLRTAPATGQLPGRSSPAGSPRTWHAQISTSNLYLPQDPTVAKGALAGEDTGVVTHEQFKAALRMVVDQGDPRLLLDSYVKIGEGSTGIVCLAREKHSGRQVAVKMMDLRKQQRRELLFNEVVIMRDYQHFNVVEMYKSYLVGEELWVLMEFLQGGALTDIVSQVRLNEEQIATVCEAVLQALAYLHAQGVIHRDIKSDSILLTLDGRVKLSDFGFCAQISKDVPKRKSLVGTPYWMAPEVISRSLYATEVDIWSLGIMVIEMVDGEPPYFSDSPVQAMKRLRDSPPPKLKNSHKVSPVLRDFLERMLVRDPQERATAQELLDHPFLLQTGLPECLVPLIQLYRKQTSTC
Serine/threonine-protein kinase Nek7, sequence (Q8TDX7 whole entry): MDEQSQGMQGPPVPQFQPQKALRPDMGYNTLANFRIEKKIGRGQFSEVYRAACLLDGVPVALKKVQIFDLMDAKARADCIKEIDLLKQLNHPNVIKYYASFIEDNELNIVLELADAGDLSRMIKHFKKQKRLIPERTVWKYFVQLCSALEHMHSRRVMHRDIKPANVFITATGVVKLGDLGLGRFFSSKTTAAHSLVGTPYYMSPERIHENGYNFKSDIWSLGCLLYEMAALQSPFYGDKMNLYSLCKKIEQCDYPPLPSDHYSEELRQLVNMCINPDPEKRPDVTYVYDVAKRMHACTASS
Dual specificity protein kinase CLK3, sequence (P49761 whole entry): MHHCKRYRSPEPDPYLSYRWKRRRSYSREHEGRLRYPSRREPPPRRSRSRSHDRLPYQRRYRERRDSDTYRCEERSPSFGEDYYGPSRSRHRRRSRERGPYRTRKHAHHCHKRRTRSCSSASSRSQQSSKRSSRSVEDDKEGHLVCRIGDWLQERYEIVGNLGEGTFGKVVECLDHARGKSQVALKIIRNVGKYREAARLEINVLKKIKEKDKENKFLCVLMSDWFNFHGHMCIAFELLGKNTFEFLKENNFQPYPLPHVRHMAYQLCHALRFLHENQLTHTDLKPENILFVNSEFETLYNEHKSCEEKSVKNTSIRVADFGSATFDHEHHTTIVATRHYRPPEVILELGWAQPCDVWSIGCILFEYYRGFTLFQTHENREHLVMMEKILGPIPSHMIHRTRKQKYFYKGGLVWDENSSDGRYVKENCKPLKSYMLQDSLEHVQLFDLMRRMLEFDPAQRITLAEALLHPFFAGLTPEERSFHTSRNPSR
G protein-coupled receptor kinase 6, sequence (P43250 whole entry): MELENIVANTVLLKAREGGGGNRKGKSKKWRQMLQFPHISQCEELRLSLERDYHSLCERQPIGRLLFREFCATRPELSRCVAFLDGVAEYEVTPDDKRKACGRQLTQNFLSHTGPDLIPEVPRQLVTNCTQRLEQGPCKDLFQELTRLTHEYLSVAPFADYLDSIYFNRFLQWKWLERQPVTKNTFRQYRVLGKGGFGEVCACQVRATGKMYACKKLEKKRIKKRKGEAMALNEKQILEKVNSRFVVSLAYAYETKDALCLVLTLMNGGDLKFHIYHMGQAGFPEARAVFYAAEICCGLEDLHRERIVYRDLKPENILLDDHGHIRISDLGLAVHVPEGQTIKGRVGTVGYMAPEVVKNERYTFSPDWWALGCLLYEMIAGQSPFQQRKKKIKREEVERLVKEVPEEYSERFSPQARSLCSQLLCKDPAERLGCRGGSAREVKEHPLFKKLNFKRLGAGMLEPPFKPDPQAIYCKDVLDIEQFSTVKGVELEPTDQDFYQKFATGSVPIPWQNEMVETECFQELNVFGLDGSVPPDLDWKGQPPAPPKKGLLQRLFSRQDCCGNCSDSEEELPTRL
Activated CDC42 kinase 1, sequence (Q07912 whole entry): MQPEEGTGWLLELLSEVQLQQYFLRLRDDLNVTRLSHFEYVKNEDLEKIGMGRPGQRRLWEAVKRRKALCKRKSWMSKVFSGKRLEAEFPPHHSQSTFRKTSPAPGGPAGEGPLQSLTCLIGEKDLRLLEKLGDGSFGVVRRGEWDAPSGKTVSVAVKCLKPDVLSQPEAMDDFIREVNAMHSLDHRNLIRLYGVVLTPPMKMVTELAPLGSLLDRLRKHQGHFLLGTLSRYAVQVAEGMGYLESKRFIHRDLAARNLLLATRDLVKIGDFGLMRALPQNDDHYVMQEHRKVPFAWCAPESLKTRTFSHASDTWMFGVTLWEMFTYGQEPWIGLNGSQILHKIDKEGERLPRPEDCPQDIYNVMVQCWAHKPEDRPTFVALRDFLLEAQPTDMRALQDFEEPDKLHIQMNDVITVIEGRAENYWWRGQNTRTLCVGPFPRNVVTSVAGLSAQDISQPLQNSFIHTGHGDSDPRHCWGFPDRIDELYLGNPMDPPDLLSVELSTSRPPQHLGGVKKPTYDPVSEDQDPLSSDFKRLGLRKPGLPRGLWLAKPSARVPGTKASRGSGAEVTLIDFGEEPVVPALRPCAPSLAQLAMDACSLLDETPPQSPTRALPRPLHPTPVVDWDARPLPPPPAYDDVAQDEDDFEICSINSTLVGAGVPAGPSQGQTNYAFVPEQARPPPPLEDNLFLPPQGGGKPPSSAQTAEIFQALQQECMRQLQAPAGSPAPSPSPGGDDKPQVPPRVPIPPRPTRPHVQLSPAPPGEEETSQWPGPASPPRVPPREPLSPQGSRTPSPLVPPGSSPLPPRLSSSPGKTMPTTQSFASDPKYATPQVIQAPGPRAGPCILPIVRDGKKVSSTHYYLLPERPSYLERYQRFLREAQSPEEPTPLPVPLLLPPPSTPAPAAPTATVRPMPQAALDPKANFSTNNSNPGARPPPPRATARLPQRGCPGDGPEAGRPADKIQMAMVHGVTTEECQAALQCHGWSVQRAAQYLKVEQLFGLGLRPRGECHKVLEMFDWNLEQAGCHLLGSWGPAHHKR
Receptor-interacting serine/threonine-protein kinase 2, sequence (O43353 whole entry): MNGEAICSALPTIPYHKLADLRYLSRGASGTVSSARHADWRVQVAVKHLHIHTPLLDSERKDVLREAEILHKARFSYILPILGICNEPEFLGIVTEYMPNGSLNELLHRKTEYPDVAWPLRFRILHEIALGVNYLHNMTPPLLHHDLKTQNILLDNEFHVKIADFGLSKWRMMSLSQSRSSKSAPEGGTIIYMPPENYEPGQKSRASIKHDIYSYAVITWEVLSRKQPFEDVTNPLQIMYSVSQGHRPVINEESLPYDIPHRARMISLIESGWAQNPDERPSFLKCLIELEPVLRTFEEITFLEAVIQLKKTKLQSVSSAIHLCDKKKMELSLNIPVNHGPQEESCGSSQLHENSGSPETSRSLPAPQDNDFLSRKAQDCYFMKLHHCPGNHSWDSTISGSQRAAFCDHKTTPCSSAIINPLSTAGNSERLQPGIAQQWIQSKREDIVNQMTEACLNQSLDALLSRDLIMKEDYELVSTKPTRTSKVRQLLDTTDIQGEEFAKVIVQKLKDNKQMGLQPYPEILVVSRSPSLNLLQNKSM

Row | Kd [1] | Kd [2] | Kd [3] | Kd [4] | Kd [5] | Kd (Activated CDC42 kinase 1) | Kd [6] | Kd (Ephrin type-A receptor 7) | Kd [7] | Kd (Aurora kinase A) | Kd (dCTP pyrophosphatase 1) | Kd [8] | Kd [9] | Kd [10] | Kd [11] | Compound
1 | > 30 µM (inactive) | > 30 µM (inactive) | > 30 µM (inactive) | > 30 µM (inactive) | > 30 µM (inactive) | > 30 µM (inactive) | > 30 µM (inactive) | > 30 µM (inactive) | > 30 µM (inactive) | > 30 µM (inactive) | > 30 µM (inactive) | > 30 µM (inactive) |  |  |  | NC(=O)c1ccc(N(C(N)=O)c2c(F)cccc2F)nc1-c1ccc(F)cc1F [VX-702]
2 | > 30 µM (inactive) | > 30 µM (inactive) | > 30 µM (inactive) | > 30 µM (inactive) | > 30 µM (inactive) | > 30 µM (inactive) | 5.94 µM (active) | > 30 µM (inactive) | > 30 µM (inactive) | > 30 µM (inactive) | > 30 µM (inactive) | > 30 µM (inactive) |  |  |  | COc1cc2ncnc(Nc3ccc(O)cc3)c2cc1OC [WHI-P131]
3 | > 30 µM (inactive) | > 30 µM (inactive) | > 30 µM (inactive) | > 30 µM (inactive) | > 30 µM (inactive) | > 30 µM (inactive) | > 30 µM (inactive) | > 30 µM (inactive) | > 30 µM (inactive) | > 30 µM (inactive) | > 30 µM (inactive) | > 30 µM (inactive) |  |  |  | O[C@H]1CC[C@H](Nc2ncc3nc(Nc4c(F)cc(F)cc4F)n([C@H]4CCOC4)c3n2)CC1 [TANZISERTIB]
4 | > 30 µM (inactive) |  | > 30 µM (inactive) | > 30 µM (inactive) | > 30 µM (inactive) | > 30 µM (inactive) | > 30 µM (inactive) |  |  | > 30 µM (inactive) | > 30 µM (inactive) |  | > 30 µM (inactive) | > 30 µM (inactive) |  | CCN1CCN(Cc2ccc(Nc3ncc(F)c(-c4cc(F)c5nc(C)n(C(C)C)c5c4)n3)nc2)CC1 [ABEMACICLIB]
5 | > 30 µM (inactive) | > 30 µM (inactive) |  | > 30 µM (inactive) | > 30 µM (inactive) | > 30 µM (inactive) | 0.81 µM (active) | > 30 µM (inactive) | > 30 µM (inactive) | > 30 µM (inactive) | > 30 µM (inactive) | > 30 µM (inactive) |  | > 30 µM (inactive) | > 30 µM (inactive) | C[C@@H]1COC(Nc2ccc3ncnc(Nc4ccc(OCc5nccs5)c(Cl)c4)c3c2)=N1 [VARLITINIB]
6 | > 30 µM (inactive) | > 30 µM (inactive) | > 30 µM (inactive) | > 30 µM (inactive) |  | > 30 µM (inactive) | > 30 µM (inactive) |  | > 30 µM (inactive) | > 30 µM (inactive) | > 30 µM (inactive) | > 30 µM (inactive) |  | > 30 µM (inactive) | > 30 µM (inactive) | COc1ccc(-c2ccc3ncc4c(c3c2)n(-c2ccc(N3CCNCC3)c(C(F)(F)F)c2)c(=O)n4C)cn1 [BGT-226 FREE BASE]
7 |  |  | > 30 µM (inactive) |  | > 30 µM (inactive) |  | 1.85 µM (active) | > 30 µM (inactive) |  |  | > 30 µM (inactive) | > 30 µM (inactive) | > 30 µM (inactive) |  |  | CCN(CCCOc1ccc2c(Nc3cc(CC(=O)Nc4cccc(F)c4)n[nH]3)ncnc2c1)CCOP(=O)(O)O [BARASERTIB]
8 | 0.028 µM (active) |  | > 30 µM (inactive) | > 30 µM (inactive) | > 30 µM (inactive) | > 30 µM (inactive) | > 30 µM (inactive) | > 30 µM (inactive) | > 30 µM (inactive) | > 30 µM (inactive) | > 30 µM (inactive) |  | > 30 µM (inactive) |  | > 30 µM (inactive) | COc1ccc2c(OCc3nnc4ccc(-c5ccccc5)nn34)ccnc2c1 [AMG-208]
9 | > 30 µM (inactive) |  | > 30 µM (inactive) | > 30 µM (inactive) |  | > 30 µM (inactive) | > 30 µM (inactive) |  | > 30 µM (inactive) | > 30 µM (inactive) | > 30 µM (inactive) | > 30 µM (inactive) | > 30 µM (inactive) | > 30 µM (inactive) |  | O=C(NC[C@H](O)CO)c1ccncc1Nc1ccc(I)cc1F [PIMASERTIB]

Row | Compound | Kd [1] | Kd [2] | Kd [3] | Kd [4] | Kd [5] | Kd (Activated CDC42 kinase 1) | Kd [6] | Kd (Ephrin type-A receptor 7) | Kd [7] | Kd (Aurora kinase A) | Kd (dCTP pyrophosphatase 1) | Kd [8] | Kd [9] | Kd [10] | Kd [11]
10 | CN(c1ncccc1CNc1nc(Nc2ccc3c(c2)CC(=O)N3)ncc1C(F)(F)F)S(C)(=O)=O [PF-00562271] |  |  | > 30 µM (inactive) |  |  |  | > 30 µM (inactive) |  |  |  | > 30 µM (inactive) | > 30 µM (inactive) | > 30 µM (inactive) |  | 
11 | C[C@]1(O)C[C@@H](c2nc(-c3ccc4ccc(-c5ccccc5)nc4c3)c3c(N)nccn32)C1 [LINSITINIB] |  |  | > 30 µM (inactive) |  |  | > 30 µM (inactive) | 1.36 µM (active) | > 30 µM (inactive) |  |  | > 30 µM (inactive) | > 30 µM (inactive) | > 30 µM (inactive) | > 30 µM (inactive) | > 30 µM (inactive)
12 | COc1cc(F)c(F)c(Nc2ccc(I)cc2F)c1NS(=O)(=O)C1(C[C@H](O)CO)CC1 [REFAMETINIB] | > 30 µM (inactive) | > 30 µM (inactive) | > 30 µM (inactive) | > 30 µM (inactive) | > 30 µM (inactive) | > 30 µM (inactive) | > 30 µM (inactive) | > 30 µM (inactive) | > 30 µM (inactive) | > 30 µM (inactive) | > 30 µM (inactive) | > 30 µM (inactive) |  |  | > 30 µM (inactive)
13 | C=CCn1c(=O)c2cnc(Nc3ccc(N4CCN(C)CC4)cc3)nc2n1-c1cccc(C(C)(C)O)n1 [ADAVOSERTIB] |  |  | > 30 µM (inactive) |  | > 30 µM (inactive) |  | > 30 µM (inactive) | > 30 µM (inactive) |  | > 30 µM (inactive) | > 30 µM (inactive) | > 30 µM (inactive) | > 30 µM (inactive) | > 30 µM (inactive) | 
